What was measured:
GPR40 = target: T1, GPR40 (Homo sapiens, UniProt O14842); assay: GPR40 Ca2+ flow assay in CHO cells with transient GPR40 gene; format: cell-based
T1 construct: expressed in transfected cells; host or cells: CHO (transient)
Procedure: Ca^2+ flow activity was determined in HEK293 cells stably transfecting the GPR120-Rluc gene. After incubating the cells for 24 h, the medium was removed from the plate, and the cells were washed with HBSS buffer (without Ca^2+ and Mg^2+). Subsequently, a 2-μM Fluo-4 AM working solution in HBSS buffer (without Ca^2+ and Mg^2+) was added to the plate (40 μl per well). After incubating the cells for 20 min at 37°C, compound solution at different concentrations in HBSS buffer (per well 160 μl) was added. Followed by a 40-min incubation, the solution was removed from the plate, HEPES buffer (200 μl per well) was added, and the fluorescence intensity was detected using the microplate reader (Ex: 488 nm; Em: 520 nm) ([Watterson et al., 2017]).
Ca^2+ flow activity was determined in CHO cells with transient GPR40 gene by the same method as well, in which the GPR40 agonist TAK875 was used as a positive control.

db/db mice [1] = assay: Fasting blood glucose in db/db mice after 4 weeks of administration; format: in vivo; conditions: gavage once a day
Procedure: (§1) All animal studies were approved by the Ethics Committee and IACUC of Cheeloo College of Medicine, Shandong University, and were conducted in compliance with European Guidelines for the Care and Use of Laboratory Animals. After adaptive feeding for 10–15 days, the db/db mice were divided into positive control group (30 mg/kg), low content compound group (10 mg/kg), high content compound group (30 mg/kg), and negative control group (the same volume dosing solvent). These mice were administrated by gavage once a day (administration volume, 20 ml/kg) for four consecutive weeks. During the administration period, the fasting blood glucose (without food and water for 6 h) was measured twice a week by using a blood glucose meter. The blood glucose level was measured for four consecutive weeks. The data was processed with Graphpad 8.2 software ([Cox et al., 2017]; [Zhang et al., 2017]).

db/db mice [2] = assay: Glucose tolerance test in db/db mice; format: in vivo
Procedure: On the last day of the dosing cycle, the fasting blood glucose of mice was measured (without food and water for 6 h), and glucose solution (100 mg/kg) was injected. The blood glucose was measured at […] (5, 10, 30, 60, and 120 min). Finally, the area under the curve was analyzed with SPSS 24 software.

GPR120 [3] = assay: Bias of agonists (Gq versus β-arrestin2 pathway); format: cell-based; conditions: reference GSK137647A pathways P1 Gq, P2 β-arrestin2
Text: The bias was quantified by Eq. 1, in which β is the bias factor, Emax is the maximum effect produced by the agonist, and Pl and P2 represents the Gq and β-arrestin2 signal pathway, respectively.
Formula 1: β=log((Emax,P1/EC50,P1EC50,P2/Emax,P2)lig×(Emax,P2/EC50,P2EC50,P1/Emax,P1)ref) (1)

[4] = Weight changes of db/db mice during four weeks of administration; format: in vivo
Procedure: as §1

GPR120 [5] = target: T2, GPR120 (Homo sapiens, UniProt Q5NUL3); assay: GPR120 Ca2+ flow assay in HEK293 cells stably transfecting the GPR120-Rluc gene; format: cell-based; set-up: expressed in transfected cells
T2 sequence (Q5NUL3 1-361): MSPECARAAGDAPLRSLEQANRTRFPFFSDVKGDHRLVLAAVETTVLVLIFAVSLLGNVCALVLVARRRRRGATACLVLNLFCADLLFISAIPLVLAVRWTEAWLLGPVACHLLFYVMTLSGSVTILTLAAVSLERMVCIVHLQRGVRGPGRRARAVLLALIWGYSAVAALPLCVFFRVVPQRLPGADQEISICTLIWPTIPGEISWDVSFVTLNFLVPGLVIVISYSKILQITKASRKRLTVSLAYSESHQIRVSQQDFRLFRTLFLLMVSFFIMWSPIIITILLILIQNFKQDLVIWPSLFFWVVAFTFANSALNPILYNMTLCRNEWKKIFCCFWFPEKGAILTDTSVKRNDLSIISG
Procedure: Ca^2+ flow activity was determined in HEK293 cells stably transfecting the GPR120-Rluc gene. After incubating the cells for 24 h, the medium was removed from the plate, and the cells were washed with HBSS buffer (without Ca^2+ and Mg^2+). Subsequently, a 2-μM Fluo-4 AM working solution in HBSS buffer (without Ca^2+ and Mg^2+) was added to the plate (40 μl per well).

GPR120 [6] = target: T2, GPR120; assay: Preliminary screening of agonists by BRET competition with probe N1; format: binding; set-up: expressed in transfected cells; conditions: 10 μM compound, probe N1 400 nM
Procedure: HEK293 cells stably transfected with the GPR120-Rluc gene were seeded in a black 96-well plate (100 μl, 2 × 10^4 cells per well). After a 24-h incubation, the medium was removed, probe N1 (400 nM, 50 μl per well) was added, and 10 μM of the compound was added after a 30-min incubation as well. Followed by a 40-min incubation, coelenterazine (final concentration: 10 μM, 50 μl per well) was added to the plate. Afterward, the fluorescence intensity was measured at 450 and 550 nm with the microplate reader after another 10-min incubation.

GPR120 [7] = target: T2, GPR120; assay: Fluorescence imaging in HEK293 cells (stably transfected with GPR120) and PC-3 cells; format: cell-based; set-up: expressed in transfected cells
Procedure: HEK293 and PC-3 cells were seeded in fluorescent confocal dishes (5 × 10^3 per well). After the cells were iron-walled, the medium was removed from the dishes, the cells were washed once with a serum-free medium, and the probe was added. After incubating the cells for 10 min, the confocal dishes were observed by an inverted fluorescence microscope.

GPR120 [8] = target: T2, GPR120; assay: BRET activity test (β-arrestin-2 recruitment, GPR120-YFP / β-arrestin-2-Rluc in HEK293 cells); format: cell-based; set-up: host or cells: HEK293 (transfected with both plasmids)
Procedure: GPR120-YFP and β-arresting-2-Rluc plasmids were transfected into HEK293 cells. After a 24-h incubation, the cells were seeded in a black 96-well plate (100 μl, 20,000 cells per well). Followed by a 24-h incubation, the solution was removed from the plate, and compounds with different concentrations (100 μl per well) and coelenterazine (10 μM, 100 μl per well) were added, followed by the fluorescence intensity was measured at 460 and 520 nm with the microplate reader ([Christiansen et al., 2016]; [Hill et al., 2018]).

[9] = Optical property of fluorescent probes; format: physicochemical
Procedure: The stocking solution of probes was diluted with acetonitrile to 40 μM, and their ultraviolet absorption spectrum was scanned with an ultraviolet spectrophotometer. Secondly, the excitation and emission spectra of probes at 10, 20, 30, and 40 μM with PBS buffer were measured with a microplate reader. Moreover, the excitation and emission spectrum were recorded in four solvents: MeCN, DMSO, H2O, and EA, respectively.

GPR120 [10] = target: T2, GPR120; assay: BRET saturation experiment of probe N1; set-up: expressed in transfected cells; conditions: 15 μM GSK134647A for non-specific binding
Procedure: HEK293 cells stably transfecting the GPR120-Rluc gene were seeded in two black 96-well plates (100 μl, 2 × 10^4 cells per well). After incubating the cells for 24 h, the medium of the non-specific plate was removed, and positive control GSK134647A (15 μM, 50 μl per well) was added into each well. After a 40-min incubation, the medium was removed, and probe N1 was added into two plates (100 μl per well). Followed by incubation for 40 min, coelenterazine was added to the plates (final concentration: 10 μM, 100 μl per well for specific plates; 50 μl per well for non-specific plates). Finally, the fluorescence intensity was measured at 460 and 520 nm with the microplate reader after a 10-min incubation ([Christiansen et al., 2016]).

GPR120 [11] = target: T2, GPR120; assay: BRET kinetic binding experiment of probe N1; set-up: expressed in transfected cells
Procedure: HEK293 cells stably transfecting the GPR120-Rluc gene were seeded in two entirely black 96-well plates (100 μl, 2 × 10^4 cells per well). After a 24-h incubation, the medium was removed from the non-specific plate, coelenterazine was added to (final concentration: 10 μM, 50 μl per well) the plates, and BRET value was measured after a 5-min incubation. Probe N1 (500 nM, 100 μl per well) was then added, and the BRET value was recorded in a 30-s interval for 6 minutes. Finally, GSK137647A was added (50 μl per well), and BRET value was measured in a 30-s interval for 30 min.

GPR120 [12] = conditions: cited from earlier work
FFA4 = tested on: FFA4; set-up: method as in Sparks et al., 2014; conditions: in Figure 3; ref Sparks et al., 2014; cited from earlier work
FFA1 = tested on: FFA1; set-up: method as in Sparks et al., 2014; conditions: in Figure 3; ref Sparks et al., 2014; cited from earlier work
GPR120 [13] = target: T2, GPR120; assay: BRET competitive binding experiment with probe N1; set-up: expressed in transfected cells; conditions: probe N1 400 nM, read-out: pKi (N1) (converted)
Procedure: HEK293 cells stably transfected with the GPR120-Rluc gene were seeded in a black 96-well plate (100 μl, 2 × 10^4 cells per well). After the cells were incubated for 24 h, the medium was removed, and probe N1 (400 nM, 50 μl per well) was added. […] Followed by a 40-min incubation, coelenterazine was added to (final concentration: 10 μM, 50 μl per well) the plates. Thenceforward, the fluorescence intensity was measured at 450 and 550 nm with the microplate reader after a 10-min incubation.

[14] = GPR120, Ca2+ flow, HEK293 GPR120-Rluc cells, read-out: pEC50 Ca2+ assay (converted)
[15] = GPR120, β-arrestin-2 activity test, read-out: pEC50 BRET (converted)

Compound: O=S(=O)(Nc1ccc(F)cc1)c1ccc(-c2ccc(OC(F)(F)F)cc2)cc1 [Compound D5, N-(4-Fluorophenyl)-4′-(Trifluoromethoxy)-[1,1′-Biphenyl]-4-Sulfonamide]
- EC50 (GPR40; CHO cells, GPR40, read-out: FFA1 (Ca2+ pEC50) (converted)): > 50100 nM
- fasting blood glucose-lowering level compared with GSK137647A (db/db mice [1]; 10 mg/kg): the same blood glucose-lowering level
- fasting blood glucose-lowering level compared with GSK137647A (db/db mice [1]; 30 mg/kg): a higher blood-glucose-lowering level
- reduction of blood glucose AUC0–120 min (db/db mice [2]; 10 mg/kg): 15.3%
- reduction of blood glucose AUC0–120 min (db/db mice [2]; 30 mg/kg): 30.3%
- bias (bias factor, Gq vs β-arrestin2) (GPR120 [3]): relatively biased towards the Gq pathway
- weight change ([4]; 10 mg/kg): reached a stable level in the fourth week
- weight change ([4]; 30 mg/kg): decreased in the fourth week
- melting point: 148 to 149 °C
- Emax (FFA4 Ca2+) (GPR120 [5]; GSK137647A used as a standard): 1.22
- EC50 (GPR120 [5]; Table 3, read-out: FFA4 (Ca2+ pEC50) (converted)): 5.37 nM
- inhibition rate in BRET screening compared with GSK137647A (GPR120 [6]): higher than GSK137647A
- fluorescence intensity of N1 after co-incubation (competitive cell imaging) (GPR120 [7]; N1 0.5 μM and D5 10 μM, HEK293 cells stably transfected with GPR120): decreased significantly
- Emax (FFA4 β-arrestin2) (GPR120 [8]; GSK137647A used as a standard): 1.12
- EC50 (GPR120 [8]; Table 3, read-out: FFA4 (β-arrestin2 pEC50) (converted)): 34.7 nM

Compound: Cc1cc(C)c(NS(=O)(=O)c2ccc(NCCN3C(=O)c4cccc5c(N(C)C)ccc(c45)C3=O)cc2)c(C)c1 [Compound N1, 4-((2-(6-(Dimethylamino)-1,3-dioxo-1H-benzo[de]isoquinolin-2(3H)-yl)ethyl)amino)-N-mesitylbenzenesulfonamide]
- Ca2+ response to GPR40 compared with TAK875 (GPR40; TAK875 as positive control): much lower than that of TAK875
- λabs ([9]; MeCN): 419 nm
- Φ (absolute quantum yield) ([9]; PBS): 3.73%
- λem ([9]; PBS): 562 nm
- λex ([9]; PBS): 444 nm
- SS (stokes shift) ([9]; PBS buffer (pH = 7.4)): 118 nm
- melting point: 230 to 231 °C
- EC50 (GPR120 [5]; [14]): 891 nM
- Kd (GPR120 [10]): 1120 ± 600 nM
- time to reach a stable state of dissociation from GPR120 (GPR120 [11]; after adding excess GSK137647A): 30 min
- Kd (GPR120 [11]; kinetic binding experiment): 273 nM
- time for binding to GPR120 to reach saturation (GPR120 [11]; probe 500 nM): ≤ 6 min
- koff (GPR120 [11]; probe 500 nM, dissociation by GSK137647A (10 μM), read-out: off-rate koff (converted)): 0.00113 s⁻¹
- kon (GPR120 [11]; probe 500 nM, read-out: on-rate kon (converted)): 4150 M⁻¹ s⁻¹
- fluorescence intensity in cell imaging (GPR120 [7]; HEK293 and PC-3 cells): much greater than that of N2 and N3
- EC50 (GPR120 [8]; [15]): 427 nM

Compound: COc1ccc(S(=O)(=O)Nc2c(C)cc(C)cc2C)cc1 [GSK137647A, reference compound]
- reduction of blood glucose AUC0–120 min (db/db mice [2]; 30 mg/kg): 19.3%
- pEC50 (Literature) (GPR120 [12]): 6.30 ± 0.2^16
- FFA4 Human pEC50 (FFA4): 6.3(0.17)
- FFA1 Human pEC50 (FFA1): < 4.5
- EC50 (GPR120 [5]; [14]): 44.7 nM
- pEC50 (Ca2+ assay) (GPR120 [5]; GPR120, Table 2): 7.35 ± 0.59
- Ki (GPR120 [13]): 110 nM
- EC50 (GPR120 [8]; [15]): 178 nM
